Measured values from patent publication US6461844B1, “Liver GalNAc-1-phosphate kinase” (The Board of Trustees of the University of Arkansas, priority 1995, dated 2002).
Entries after “also recorded” stand apart in the source; their conditions may differ. Each block holds one compound with its values, some of them ahead of it.

Tests used:
[1] = molecular target: T1, GalNAc kinase (Sus scrofa, UniProt A0A287BB25); assay: Phosphate donor specificity of GalNAc kinase; assay type: biochemical, pig; parameters: Radioactivity in Sugar-P: unit not given beside the values; settings: for Radioactivity in Sugar-P / Specific Activity: nucleotide added at 5 mM
T1 construct: This enzyme was purified about 1400-fold from the cytosolic fraction of pig kidney; from tissue; host or cells: pig kidney cytosol

[2] = molecular target: T1, GalNAc kinase; assay: Divalent cation requirement of GalNAc kinase; assay type: biochemical, pig; settings: for stimulation of the kinase: tested at a variety of concentrations; for maximum activity relative to optimum concentrations of Mg++: at optimum cation concentration
Procedure: FIG. 1 illustrates the effect of various divalent cations on the GalNAc kinase. Various amounts of Mg^++, Mn^++, or Co^++ were added to incubations prepared as indicated below. The amount of GalNAc phosphorylated in each incubation by the purified enzyme was determined as described in the assay conditions.
(§1) GalNAc kinase activity was assayed in incubation mixtures of 200 μl containing the following components: [^3H]GalNAc (10,000 cpm), 1 μmole of ATP, 2 μmoles of MgCl2, 20 μmoles of Tris-HCl buffer, pH 7.5, and various amounts of the enzyme preparations to be assayed. Following an incubation for the appropriate time, the reaction was stopped by heating at 100° C. for 5 min., and the incubation mixture was applied to a column of DE-52. The column was washed with at least 5 column volumes of 10 mM (NH4)HCO3 buffer to remove unbound material, and then GalNAc phosphate was eluted with 500 mM ammonium bicarbonate. Aliquots of the wash and eluent were removed and assayed for their radioactive content by scintillation counting.
The addition of Mg^++ greatly stimulated the activity, and maximum activity occurred at 6 mM Mg^++. Other divalent cations, such as Mn^++ and Co^++ were also somewhat stimulatory, but much less so than Mg^++.

[3] = molecular target: T1, GalNAc kinase; assay: Sugar specificity of GalNAc kinase; assay type: biochemical, pig; settings: for Radioactivity Incorp.: labeled sugars of same specific activity; for activity as phosphate acceptor: purified kinase; for activity as % of the activity observed with GalNAc: sugar as substrate
Procedure: as §1
A variety of sugars were tested and in each case the specific radioactivity of the labeled sugar was adjusted with unlabeled material so that all were of the same specific activity in order to allow a true comparison of their ability to serve as substrates for the kinase. The amount of radioactivity that bound to DE-52 and was eluted with (NH4)HCO3 was taken as a measure of phosphorylation by the enzyme.

[4] = molecular target: T2, yeast galactokinase (Saccharomyces cerevisiae, UniProt P04385); assay: Sugar specificity of yeast galactokinase; assay type: biochemical; settings: for Radioactivity Incorporated (Δ cpm): minus 0 ul value
T2 construct: purchased Sigma Chemical Co
T2 sequence (P04385 1-528): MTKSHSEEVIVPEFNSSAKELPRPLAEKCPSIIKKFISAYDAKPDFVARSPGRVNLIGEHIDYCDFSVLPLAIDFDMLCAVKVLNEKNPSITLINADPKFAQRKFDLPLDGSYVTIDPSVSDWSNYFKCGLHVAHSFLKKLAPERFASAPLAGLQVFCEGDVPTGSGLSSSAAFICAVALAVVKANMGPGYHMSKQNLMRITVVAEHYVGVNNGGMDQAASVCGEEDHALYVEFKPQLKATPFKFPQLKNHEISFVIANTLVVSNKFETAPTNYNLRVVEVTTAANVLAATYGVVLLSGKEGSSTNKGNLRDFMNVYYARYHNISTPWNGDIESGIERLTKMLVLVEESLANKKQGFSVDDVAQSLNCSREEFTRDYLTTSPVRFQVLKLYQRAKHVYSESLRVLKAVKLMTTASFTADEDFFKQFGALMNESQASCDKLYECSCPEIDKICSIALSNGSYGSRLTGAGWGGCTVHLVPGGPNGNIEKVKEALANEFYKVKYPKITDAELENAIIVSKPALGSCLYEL
Excerpt: Galactokinase is an enzyme known to phosphorylate galactose in the one position. […] The specificity of the galactokinase and the GalNAc kinase indicate that they are two different enzymes.

[5] = molecular target: T1, GalNAc kinase; assay: Effect of sulfhydryl reagents on GalNAc kinase activity; assay type: biochemical, pig; settings: for Activity (cpm in Sugar-P): control 8700
Procedure: as §1
In order to determine whether sulfhydryl groups are necessary for catalytic activity, the effects of various compounds known to react with and inactivate sulfhydryl groups, were examined on the kinase activity.

[6] = system: UDP-GlcNAc pyrophosphorylases; settings: UDP-GlcNAc = 100%; cited from earlier work

T1 sequence (A0A287BB25 1-458): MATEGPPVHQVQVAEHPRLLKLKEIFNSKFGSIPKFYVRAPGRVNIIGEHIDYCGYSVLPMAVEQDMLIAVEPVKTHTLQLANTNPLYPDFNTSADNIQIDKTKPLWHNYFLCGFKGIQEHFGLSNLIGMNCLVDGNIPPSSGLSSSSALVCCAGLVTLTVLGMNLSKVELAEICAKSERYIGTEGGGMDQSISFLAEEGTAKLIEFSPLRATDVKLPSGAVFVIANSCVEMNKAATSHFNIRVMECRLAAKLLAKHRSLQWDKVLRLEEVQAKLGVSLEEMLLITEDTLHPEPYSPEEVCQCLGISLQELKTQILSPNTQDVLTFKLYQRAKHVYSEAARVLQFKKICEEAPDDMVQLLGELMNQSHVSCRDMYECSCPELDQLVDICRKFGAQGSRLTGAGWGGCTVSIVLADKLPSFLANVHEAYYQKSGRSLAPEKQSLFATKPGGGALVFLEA

SMILES: Nc1ccn([C@@H]2O[C@H](COP(=O)(O)OP(=O)(O)O)[C@@H](O)[C@H]2O)c(=O)n1 [CDP]
activity as phosphate donor [1]: only slightly above background levels | Radioactivity in Sugar-P [1]: 490 | Specific Activity [1]: 7.6 nmol/mg

SMILES: [Co+2] [Co^++]
cation concentration for maximum (optimum) activity [2]: 10 mM | maximum activity relative to optimum concentrations of Mg++ [2]: about 50%

SMILES: N[C@H]1C(O)O[C@H](CO)[C@@H](O)[C@@H]1O (stereo partly shown) [GlcN, glucosamine]
Radioactivity Incorp. ([3]; 4 μl enzyme): 189 cpm | Radioactivity Incorp. ([3]; 8 μl enzyme): 206 cpm | activity as phosphate acceptor [3]: inactive | Radioactivity Incorporated ([4]; 2 ul enzyme): 135 cpm | Radioactivity Incorporated (Δ cpm) ([4]; 2 ul enzyme): 0 cpm | Radioactivity Incorporated ([4]; 4 ul enzyme): 150 cpm | Radioactivity Incorporated (Δ cpm) ([4]; 4 ul enzyme): 0 cpm

SMILES: NC(=O)CI [IAA, iodoacetamide]
concentration at which effective as an inhibitor [5]: above 1 mM | Activity (cpm in Sugar-P) ([5]; inhibitor 0.1 mM): 8260 cpm | Activity (cpm in Sugar-P) ([5]; inhibitor 0.5 mM): 7660 cpm | Activity (cpm in Sugar-P) ([5]; inhibitor 1 mM): 5490 cpm | Activity (cpm in Sugar-P) ([5]; inhibitor 2 mM): 2170 cpm | Activity (cpm in Sugar-P) ([5]; inhibitor 4 mM): 658 cpm

SMILES: O=c1[nH]cnc2c1ncn2[C@@H]1O[C@H](COP(=O)(O)OP(=O)(O)OP(=O)(O)O)[C@@H](O)[C@H]1O [ITP]
activity as phosphate donor [1]: slight activity; also recorded: some activity | Radioactivity in Sugar-P [1]: 900 | Specific Activity [1]: 14.1 nmol/mg

SMILES: [Mo+2] [Mo^++]
stimulation of the kinase [2]: inactive

SMILES: CCN1C(=O)C=CC1=O [NEM, N-ethylmaleimide]
inhibition at 500 µM ([5]; 0.5 mM, read-out: inhibition of enzymatic activity): 90% | Activity (cpm in Sugar-P) ([5]; inhibitor 0.1 mM): 9050 cpm | Activity (cpm in Sugar-P) ([5]; inhibitor 0.5 mM): 805 cpm | Activity (cpm in Sugar-P) ([5]; inhibitor 1 mM): 40 cpm | Activity (cpm in Sugar-P) ([5]; inhibitor 2 mM): 0 cpm | Activity (cpm in Sugar-P) ([5]; inhibitor 4 mM): 0 cpm

SMILES: [Ni+2] [Ni^++]
stimulation of the kinase [2]: inactive

SMILES: CC(=O)N[C@H]1[C@@H](OP(=O)(O)OP(=O)(O)OC[C@H]2O[C@@H](n3ccc(=O)[nH]c3=O)[C@H](O)[C@@H]2O)O[C@H](CO)[C@@H](O)[C@@H]1O [UDP-GlcNAc]
activity towards substrate [6]: 100%

SMILES: O=c1ccn([C@@H]2O[C@H](COP(=O)(O)OP(=O)(O)OP(=O)(O)O)[C@@H](O)[C@H]2O)c(=O)[nH]1 [UTP]
Radioactivity in Sugar-P [1]: 180 | Specific Activity [1]: 2.8 nmol/mg

SMILES: [Zn+2] [Zn^++]
stimulation of the kinase [2]: inactive

SMILES: CC(=O)OP(=O)(O)O [acetylphosphate]
activity as phosphate donor [1]: No activity

SMILES: O=C(O)c1cc[c]([Hg][Cl])cc1 [pCMB, p-chloromercuribenzoate]
inhibition of enzymatic activity ([5]; 0.02 mM): over 70% | inhibition of enzymatic activity ([5]; 0.04 mM): complete inhibition | Activity (cpm in Sugar-P) ([5]; inhibitor 0.02 mM): 2660 cpm | Activity (cpm in Sugar-P) ([5]; inhibitor 0.04 mM): 250 cpm | Activity (cpm in Sugar-P) ([5]; inhibitor 0.06 mM): 30 cpm | Activity (cpm in Sugar-P) ([5]; inhibitor 0.1 mM): 20 cpm | Activity (cpm in Sugar-P) ([5]; inhibitor 0.25 mM): 50 cpm

SMILES: C=C(OP(=O)(O)O)C(=O)O [phosphoenolpyruvate]
activity as phosphate donor [1]: No activity

The remaining lines, values ahead:

activity as phosphate donor [1]: only slightly above background levels | Radioactivity in Sugar-P [1]: 260 | Specific Activity [1]: 4.0 nmol/mg
SMILES: Nc1ncnc2c1ncn2[C@@H]1O[C@H](COP(=O)(O)OP(=O)(O)O)[C@@H](O)[C@H]1O [ADP]

activity as phosphate donor [1]: only slightly above background levels | Radioactivity in Sugar-P [1]: 370 | Specific Activity [1]: 5.8 nmol/mg
SMILES: Nc1ccn([C@@H]2O[C@H](COP(=O)(O)OP(=O)(O)OP(=O)(O)O)[C@@H](O)[C@H]2O)c(=O)n1 [CTP]

stimulation of the kinase [2]: inactive
SMILES: [Ca+2] [Ca^++]

stimulation of the kinase [2]: inactive
SMILES: [Cu+2] [Cu^++]

stimulation of the kinase [2]: inactive
SMILES: [Fe+3] [Fe^+++]

Radioactivity in Sugar-P [1]: 10 | Specific Activity [1]: 0.1 nmol/mg
SMILES: Nc1nc2c(ncn2[C@@H]2O[C@H](COP(=O)(O)OP(=O)(O)O)[C@@H](O)[C@H]2O)c(=O)[nH]1 [GDP]

activity as phosphate donor [1]: only slightly above background levels | Radioactivity in Sugar-P [1]: 300 | Specific Activity [1]: 4.7 nmol/mg
SMILES: Nc1nc2c(ncn2[C@@H]2O[C@H](COP(=O)(O)OP(=O)(O)OP(=O)(O)O)[C@@H](O)[C@H]2O)c(=O)[nH]1 [GTP]

Radioactivity Incorp. ([3]; 4 μl enzyme): 301 cpm | Radioactivity Incorp. ([3]; 8 μl enzyme): 442 cpm | activity as phosphate acceptor [3]: inactive | activity as % of the activity observed with GalNAc [3]: 1% | activity as substrate of yeast galactokinase [4]: very active | Radioactivity Incorporated ([4]; 2 ul enzyme): 6900 cpm | Radioactivity Incorporated (Δ cpm) ([4]; 2 ul enzyme): 6835 cpm | Radioactivity Incorporated ([4]; 4 ul enzyme): 7530 cpm | Radioactivity Incorporated (Δ cpm) ([4]; 4 ul enzyme): 7465 cpm
SMILES: O=C[C@H](O)[C@@H](O)[C@@H](O)[C@H](O)CO [Gal, galactose]

Radioactivity Incorp. ([3]; 4 μl enzyme): 449 cpm | Radioactivity Incorp. ([3]; 8 μl enzyme): 468 cpm | activity as phosphate acceptor [3]: inactive | activity as % of the activity observed with GalNAc [3]: 1% | activity as substrate of yeast galactokinase [4]: slight activity | Radioactivity Incorporated ([4]; 2 ul enzyme): 300 cpm | Radioactivity Incorporated (Δ cpm) ([4]; 2 ul enzyme): 173 cpm | Radioactivity Incorporated ([4]; 4 ul enzyme): 440 cpm
SMILES: N[C@H]1C(O)O[C@H](CO)[C@H](O)[C@@H]1O (stereo partly shown) [GalN, galactosamine]

Radioactivity Incorp. ([3]; 4 μl enzyme): 14,094 cpm | Radioactivity Incorp. ([3]; 8 μl enzyme): 18,448 cpm | activity as substrate of yeast galactokinase [4]: no phosphorylation | Radioactivity Incorporated ([4]; 2 ul enzyme): 37 cpm | Radioactivity Incorporated (Δ cpm) ([4]; 2 ul enzyme): 0 cpm | Radioactivity Incorporated ([4]; 4 ul enzyme): 83 cpm | Radioactivity Incorporated (Δ cpm) ([4]; 4 ul enzyme): 11 cpm
SMILES: CC(=O)N[C@H]1C(O)O[C@H](CO)[C@H](O)[C@@H]1O (stereo partly shown) [GalNAc, N-acetylgalactosamine]

Radioactivity Incorp. ([3]; 4 μl enzyme): 135 cpm | Radioactivity Incorp. ([3]; 8 μl enzyme): 147 cpm | activity as phosphate acceptor [3]: inactive | Radioactivity Incorporated ([4]; 2 ul enzyme): 133 cpm | Radioactivity Incorporated (Δ cpm) ([4]; 2 ul enzyme): 60 cpm | Radioactivity Incorporated ([4]; 4 ul enzyme): 84 cpm | Radioactivity Incorporated (Δ cpm) ([4]; 4 ul enzyme): 10 cpm
SMILES: CC(=O)N[C@H]1C(O)O[C@H](CO)[C@@H](O)[C@@H]1O (stereo partly shown) [GlcNAc, N-acetylglucosamine]

Radioactivity Incorp. ([3]; 4 μl enzyme): 475 cpm | Radioactivity Incorp. ([3]; 8 μl enzyme): 89 cpm | activity as phosphate acceptor [3]: inactive
SMILES: CC(=O)N[C@@H]1C(O)O[C@H](CO)[C@@H](O)[C@@H]1O (stereo partly shown) [ManNAc, N-acetylmannosamine]

cation concentration for maximum (optimum) activity [2]: 2 to 8 mM | maximum activity relative to optimum concentrations of Mg++ [2]: about 50%
SMILES: [Mn+2] [Mn^++]

Radioactivity in Sugar-P [1]: 30 | Specific Activity [1]: 0.5 nmol/mg
SMILES: O=c1ccn([C@@H]2O[C@H](COP(=O)(O)OP(=O)(O)O)[C@@H](O)[C@H]2O)c(=O)[nH]1 [UDP]
